Laboratory results as given in patent US7060712B2, “Crystalline form of aryl aniline β2 adrenergic receptor agonist” (Theravance, Inc., priority 2003, dated 2006).

Test: Solid state stability testing on storage
Type: physicochemical
Experimental: Samples (20 and 80 mg each) of the Form A material produced by the process of Example 7 were stored at 25° C. and 60% relative humidity and at 40° C. and 75% relative humidity in open containers and in closed containers.
X-ray powder diffraction patterns were obtained with a Shimadzu 6000 diffractometer using Cu Kα (40.0 kV, 35.0 mA) radiation. The analysis was performed with the goniometer running in continuous-scan mode of 2°/min with a step size of 0.020 over a range of 4 to 45°. Samples were prepared on glass specimen holders as a thin layer of powdered material. The instruments was calibrated to a silicon metal standard.
Differential scanning calorimetry traces were obtained with a TA instruments model DSCQ10. Samples were placed in sealed aluminum pans for analysis with an empty pan serving as the reference. Samples were equilibrated at 30° C. and heated at 5° C. per minute to a temperature of 300° C. The instrument was calibrated with an indium standard.
Thermogravimetric analysis was conducted using a TA instruments model Q50. Samples were weighed in aluminum pans and heated from 30° C. to 300° C. at a rate of 5° C./min.
HPLC analysis was performed using reverse phase conditions and a gradient of 2% to 90% acetonitrile over 6 minutes. Solvents contain 0.1% trifluoroacetic acid. Column: Zorbax 2.1×50 mm, flow rate 0.5 mL/min, observed wavelength 214 nm.

[1] = solid stored four weeks at 25° C. and 60% relative humidity in closed containers

In the case of COc1ccc(Nc2ccc(CCNC[C@H](O)c3ccc(O)c4[nH]c(=O)ccc34)cc2)cc1-c1ccccc1.Cl [Form A, N-{2-[4-(3-phenyl-4-methoxyphenyl)aminophenyl]ethyl}-(R)-2-hydroxy-2-(8-hydroxy-2(1H)-quinolinon-5-yl)ethylamine monohydrochloride water/isopropanol solvate], the “stability upon storage (HPLC degradant peaks; DSC, TGA and XRPD traces)” value (four weeks at 25° C. and 60% humidity in closed containers) was “stable”, the “changes in analysis by DSC and TGA” value [1] was “no detectable differences” and the “chemical degradation, analysis by HPLC” value [1] was “no detectable chemical degradation”. The “solvent content on storage in open containers” value (solid stored in open containers over four weeks (25° C./60% RH and 40° C./75% RH)) was “loss of isopropanol”.
